According to the NIST ThermoML archive (doi:10.1021/je8007606):

Assay: excess molar enthalpy (molar enthalpy of mixing); xn = mol fraction of the nth substance listed
Settings: 298.15 K, 101 kPa, Liquid, Calvet calorimetry

CCCCCCCCC [nonane] + CCCO
Settings | excess molar enthalpy [kcal/mol]
x2 = 0.0794 | 0.118
x2 = 0.1401 | 0.144
x2 = 0.2595 | 0.17
x2 = 0.3588 | 0.174
x2 = 0.441 | 0.173
x2 = 0.5192 | 0.165
x2 = 0.5829 | 0.154
x2 = 0.7046 | 0.129
x2 = 0.7517 | 0.117
x2 = 0.7992 | 0.1
x2 = 0.8361 | 0.086
x2 = 0.878 | 0.0674
x2 = 0.911 | 0.0521
x2 = 0.9469 | 0.0332
x2 = 0.9689 | 0.0206
